Measured values from PMC10303900, “Discovery of a New Chalcone-Trimethoxycinnamide Hybrid with Antimitotic Effect: Design, Synthesis, and Structure—Activity Relationship Studies” (Pharmaceuticals, 2023).

Legend:
MCF-7 = assay: SRB growth inhibition assay, breast adenocarcinoma cells; type: cell-based; settings: Homo sapiens, MCF7, 48 h
Description: (§1) A sulforhodamine B (SRB) assay was performed to evaluate the in vitro growth inhibitory activity of all synthesized hybrids, as well as intermediates in the human tumor cell lines of melanoma (A375-C5), breast adenocarcinoma (MCF-7), and colorectal carcinoma (HCT116), as well as on the non-tumor Human Pulmonary Alveolar Epithelial cell line (HPAEpiC). The concentration inducing 50% cell growth inhibition (GI50), was calculated. […] The overall results prompt us to further investigate the mechanism behind the cytotoxic activities of compounds 6, 7, and 13 in colorectal tumor cells. Moreover, in silico studies were performed, aiming to screen for drug-likeness.
(§2) A375-C5 (melanoma) and MCF-7 (breast adenocarcinoma) cell lines were obtained from the European Collection of Cell Culture, UK, and were grown in RPMI-1640 medium (Roswell Park Memorial Institute, Biochrom, Cambridge, UK) with 5% inactivated FBS (fetal bovine serum, Biochrom). HCT-116 (colon adenocarcinoma) cells were grown in DMEM medium (Dulbecco’s Modified Eagle’s, Biochrom) with 5% inactivated FBS. The non-tumor human pulmonary alveolar epithelial cells (HPAEpiC) were obtained from ScienCell Research Laboratories and grown in DMEM medium supplemented with 10% FBS and 1% non-essential amino acids (Sigma-Aldrich Co., Saint Louis, MO, USA). All cell lines were maintained in a humidified incubator (Hera Cell, Heraeus, Hanau, Germany) at 37 °C and with 5% CO2, and cell viability was regularly monitored using the exclusion trypan blue dye.
(§3) A total of 5.0 × 10^4 A375-C5, MCF-7, and HCT-116 cells, or 6.0 × 10^4 HPAEpiC cells were seeded in 96-well plates and incubated at 37 °C and 5% CO2 to allow for cell attachment. After 24 h, cells were treated with two-fold serial dilutions of test compounds (0–150 µM), or with DMSO as the compound solvent. In parallel, cells in a time-zero (T0) plate, without treatment, were fixed with 50% (m/v) trichloroacetic acid (TCA, Merck Millipore, Darmstadt, Germany), for 1 h at 4 °C, and then washed with distilled water and left to dry. Forty-eight hours after compound treatment, cells were fixed with 50% TCA and stained with SRB (Sigma-Aldrich Co., Ltd., Gillingham, UK) for 30 min at room temperature, followed by 5 rounds of washing with 1% (v/v) acetic acid (Merck Milli-pore, Darmstadt, Germany). SRB–protein complexes were then solubilized with […] Tris buffer (Sigma-Aldrich Co., Ltd., Gillingham, UK) for 30 min, and the absorbance was measured at 515 nm in a microplate reader (Biotek Synergy 2, BioTek Instruments, Inc., Winooski, VT, USA). A dose-response curve was obtained for each cell line, and the concentration that caused 50% cell growth inhibition (GI50) was calculated.

HCT116 p53−/− = assay: SRB growth inhibition assay, p53 knocked-out colorectal cells; type: cell-based, human
Description: as §3

HCT116 cells [1] = assay: Mitotic arrest / mitotic index by phase-contrast microscopy; type: cell-based, human; settings: HCT116, 24 h
Description: Disruption of cell cycle progression is considered one of the most common cytotoxic mechanisms of anticancer drugs. Moreover, the antimitotic effect of BP-M345 (2) has been previously reported. Therefore, compounds 6, 7, and 13 were tested for their capability to induce cell cycle arrest. HCT116 cells were exposed for 24 h to the compounds and then analyzed using phase contrast microscopy for morphological changes. Untreated and dimethyl sulfoxide (DMSO; solvent)-treated cells were used as negative controls. Cell exposure to nocodazole, an antimitotic agent, was used as a positive control. […] We thus calculated the mitotic index (MI), and observed a significant increase in MI in 7-treated cells (22.76 ± 4.30%) compared to the untreated (12.68 ± 1.98%) or DMSO-treated (12.81 ± 1.45%) (Figure 4c).
A total of 1.2 × 10^5 HCT-116 cells were grown in six-well dishes and treated for 24 h with 3.26 µM of compound 7. Cells treated with 1 µM nocodazole were used as a positive control for antimitotic activity. Untreated cells and cells treated with DMSO were included to exclude the cytotoxicity of the compound solvent. Mitotic index, and the percentage of mitotic cells over the total cell population were determined via cell-rounding under phase-contrast microscopy from at least ten random microscope fields.
For phase contrast microscopy images, a Nikon TE 2000-U microscope (Nikon, Amsterdam, The Netherlands) with a 10× objective was used, coupled to a DXM1200F digital camera with Nikon ACT-1 software (Melville, NY, USA). For fluorescence images, an Axio Observer Z.1 SD microscope (Carl Zeiss, Germany) was used, coupled to an AxioCam MR3, with the Plan Apochromatic 63×/NA 1.4 objective. The images were processed using ImageJ, version 1.51.

A375-C5 = assay: Sulforhodamine B (SRB) growth inhibition assay, melanoma cells; type: cell-based; settings: Homo sapiens, 48 h
Description: as §1, §2, §3

HPAEpiC = assay: SRB growth inhibition assay, non-tumor pulmonary alveolar epithelial cells; type: cell-based; settings: Homo sapiens, Epithelial cell, 48 h
Description: as §1, §2, §3

HCT116 cells [2] = assay: Immunofluorescence of mitotic spindle morphology (anti-α-tubulin); type: cell-based, human; settings: HCT116, GI50 of the compound, 24 h
Description: To understand the mechanism behind the induction of mitotic arrest after treatment with the compound 7, we treated HCT116 cells with the GI50 of the compound. Twenty-four hours later, we performed an immunofluorescence assay using an anti-α-tubulin antibody to visualize the spindle morphology.
Cells were treated as for DAPI staining. After methanol fixation, cells were blocked with 10% FBS in PBST (0.05% Tween-20 in PBS) for 30 min at room temperature, followed by 1 h incubation with a primary antibody (mouse anti-α-tubulin, 1:2500, Sigma-Aldrich Co., Ltd., Gillingham, UK) diluted in 5% FBS in PBST. Then, cells were washed three times in PBST and incubated with an Alexa Fluor 488 conjugated secondary antibody (1:1500, Molecular Probes, Eugene, OR, USA). DNA was stained with DAPI.

## CCCc1c(OCCNC(=O)/C=C/c2cc(OC)c(OC)c(OC)c2)ccc(C(=O)/C=C/c2cc(OC)c(OC)c(OC)c2)c1O [Compound 7, (E)-N-(2-(3-hydroxy-2-propyl-4-((E)-3-(3,4,5-trimethoxyphenyl)acryloyl)phenoxy)ethyl)-3-(3,4,5-trimethoxyphenyl)acrylamide]
MCF-7
  GI50: > 75 µM
HCT116 p53−/−
  SI, selective index (GI50 of HCT116 p53−/−/GI50 of HCT116 p53+/+): 0.40
HCT116 p53−/−; Homo sapiens, HCT-116, Table 2, 48 h
  GI50: 1300 ± 90 nM
HCT116 cells [1]; at GI50 (3.26 µM), untreated 12.68 ± 1.98%
  Mitotic index (MI): 22.76 ± 4.30%
HCT116 cells [1]; phase contrast microscopy
  Accumulation of bright and rounded (mitotic) cells: accumulation of bright and rounded cells
A375-C5
  GI50: 32.1 ± 1.27 µM
HPAEpiC
  GI50: 57.2 ± 8.68 µM
HCT116 cells [2]
  Cells with collapsed (monopolar-like) mitotic spindles: 91.41 ± 4.87%
  Percentage of bipolar spindles: 6.57 ± 2.13%
